Measured values taken from US20260000763A1, “Methods of Manufacturing Therapeutic Cells” (The Board of Trustees of the Leland Stanford Junior …, priority 2022, published 2026).

Tested on: GD2 CAR T cells
Assay: Large-scale manufacturing of GD2.bbz CAR T cells in G-Rex system in regular or inosine media
Format: cell-based
Description: Enriched CD4/CD8+ T cells from a healthy donor were cultured in regular or inosine-containing media in the G-Rex system. Cells were analyzed at days 7 post-activation. A: Scheme of the large scale experiment. B: Expansion of GD2 CAR T cells manufactured in control vs inosine-containing media. N=1 out of two donors is shown. C: Number of CAR+ T cells at the day 7 post activation. D: Viability of T cells. E: Percentage of CAR+ and CD4 vs CD8 T cells. Data from one representative donor is shown. N=2. F: Relative frequency of terminally differentiated effector (EMRA; CD45RA+ CCR7-), naïve (CD45RA+ CCR7+), central memory (CM; CD45RA-CCR7+), and effector memory (EM; CD45RA-CCR7-) cells in CD8+ control or inosine-grown GD2 CAR T cells. G: IL-2 and IFNγ secretion by CAR T cells stimulated with 143b, mg63.3 or Nalm6-GD2 tumor lines. […] P values were determined by unpaired two-tailed t-tests.
FIG. 13A-13H: Clinical scale manufacturing of clinical grade GD2-CAR T cells using media containing inosine, improves CAR product quality. A: Schematic of large-scale manufacturing of GD2.bbz-CAR+ T cells in a semi-closed G-Rex system in glucose-or inosine-containing media. 7 days post-activation, transduction efficiency, percentage of viable cells, and CD4/CD8 ratio of GD2+ cells were assessed by flow cytometry. […] B: Expansion of total viable T cells manufactured in control (black) vs. inosine (green)-containing media and (Right) corresponding number of CAR+ cells at day 7. […] C: IL-2 and IFNg secretion by CAR T cells stimulated for 24 hrs with 143b, mg63.3 or Nalm6-GD2 tumor lines. […] D: NSG mice were injected with 1×10^6 Nalm6 leukemia cells. On day 3 post-tumor injection, 2×10^6 of mock or GD2.bbz-CAR T cells manufactured in the presence of inosine or in regular media were transferred intravenously. Tumor growth was monitored by bioluminescent imaging. […] P values determined at day 43 by using Mann-Whitney test. […] E: Concentration of CD45+ T cells detected in blood of mice at D33 post-CAR T cell injection. […] F: Schematic of the experimental design. G: GD2.bbz-CAR T cells grown in media containing indicated inosine concentration between day 3 and day 10 post-activation and stimulated with 143b tumor. IL-2 and IFNg secretion after 24 hrs of co-culture was measured. Data are mean±s.d. of duplicate or triplicate wells. Representative of n=3 donors shown. […] Reprograming is due to an increase in glutaminolysis and polyamine synthesis and downregulation of CD73, FOXP3, A2aR and c-AMP response transcription factors.
In this example, the in vivo anti-tumor potency of CAR T cells manufactured in the presence or absence of inosine was assessed. In this particular example, the feasibility of manufacturing GD2 CAR T cells in inosine media in the clinical setting was assessed. 2.5×10^8 enriched CD4+ and CD8+ T cells from a healthy donor were activated with anti-CD3/CD28-coated beads and transduced using clinical grade GD2.bbz vector at MOI=10 (FIG. 6A). From day 3, T cells were continued to be cultured in regular-or inosine containing media in a semi-closed culture system using G-Rex platform. […] There was no difference in product viability (FIG. 6D), nor transduction efficiency nor CD4 vs CD8 ratio (FIG. 6E).
A total of 2.5×10^8 enriched CD4+ and CD8+ T cells from a healthy donor were activated with anti-CD3/CD28-coated beads and transduced using clinical grade GD2-CAR vector at an MOI of 10 (FIG. 13A). On day 3, T cells were maintained in standard RPMI media containing glucose or switched to inosine-containing RPMI without glucose in a semi-closed G-Rex culture platform.

For `O=c1[nH]cnc2c1ncn2[C@@H]1O[C@H](CO)[C@@H](O)[C@H]1O` [inosine, Inosine], the “total cells after expansion” value (G-Rex, inosine media from day 3, day 7, one donor (FIG. 6B)) was 384.3×10^6 total cells, the total cell yield (day 7, INO RPMI without glucose from day 3, n=2 donors, s.e.m.) was 238.5×10^6+145.8 and the “CD4 vs CD8 ratio” value (day 7, inosine vs control) was “no difference”. For the same compound, the “frequency of naive and central memory GD2 CAR T cells” value (day 7, inosine vs control) was “higher frequency”, the product viability (day 7, inosine vs control) was “no difference” and the transduction efficiency (day 7, inosine vs control) was “no difference”.
